Calls of active or inactive are those of the source. No cut-off for these calls is given here.
Experiments:
PC-12 [1] = assay: Neuroprotective activity against CoCl2-induced cytotoxicity in rat PC12 cells assessed as increase in cell viability at 1 uM pretreated with CoCl2 for 8 hrs followed by incubation with drug and measured after 24 hrs by MTT assay; type: functional, cell-based
[2] = target: T1, Amine oxidase [flavin-containing] B (Homo sapiens, UniProt P27338); assay: Competitive inhibition of human recombinant MAO-B expressed in baculovirus infected BTI cells assessed as inhibition of 4-hydroxyquinoline formation using varying concentration of kynuramine as substrate preincubated with enzyme for 10 mins followed by addition of substrate and measured after 15 mins by Lineweaver-Burk plot analysis
T1 sequence (P27338 whole entry): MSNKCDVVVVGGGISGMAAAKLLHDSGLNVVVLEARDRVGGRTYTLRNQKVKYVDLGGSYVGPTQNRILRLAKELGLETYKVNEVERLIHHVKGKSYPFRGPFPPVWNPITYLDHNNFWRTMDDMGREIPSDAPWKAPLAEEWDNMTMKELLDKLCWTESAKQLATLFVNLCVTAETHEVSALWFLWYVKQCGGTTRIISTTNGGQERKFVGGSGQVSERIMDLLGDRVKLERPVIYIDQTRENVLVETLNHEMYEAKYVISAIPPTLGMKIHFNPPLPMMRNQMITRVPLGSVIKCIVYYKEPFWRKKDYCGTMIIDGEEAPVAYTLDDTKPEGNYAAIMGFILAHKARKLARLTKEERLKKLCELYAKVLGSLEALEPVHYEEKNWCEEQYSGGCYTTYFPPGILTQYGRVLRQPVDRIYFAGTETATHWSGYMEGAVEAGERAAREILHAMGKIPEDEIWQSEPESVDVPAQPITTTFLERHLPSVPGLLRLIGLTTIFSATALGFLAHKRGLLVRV

[3] = n-Octanol/saturated water patition coefficient, logP of the compound at 0.05 mg/ml incubated for 24 hrs by HPLC analysis; type: physicochemical
PC-12 [4] = assay: Neuroprotective activity against CoCl2-induced cytotoxicity in rat PC12 cells assessed as increase in cell viability pretreated with CoCl2 for 8 hrs followed by incubation with drug and measured after 24 hrs by MTT assay relative to control; type: functional
PC-12 [5] = assay: Neuroprotective activity against CoCl2-induced cytotoxicity in rat PC12 cells assessed as increase in cell viability pretreated with CoCl2 for 8 hrs followed by incubation with drug and measured after 24 hrs by MTT assay; type: functional, cell-based
[6] = target: T1, Amine oxidase [flavin-containing] B; assay: (§1) Inhibition of human recombinant MAO-B expressed in baculovirus infected BTI cells assessed as inhibition of 4-hydroxyquinoline formation using kynuramine as substrate preincubated with enzyme for 10 mins followed by addition of substrate and measured after 15 mins by fluorescence spectrophotometry
[7] = target: T1, Amine oxidase [flavin-containing] B; assay: as §1, with “spectrophotometry relative to control” for “spectrophotometry”; conditions: 0.25 h, time 25 min, read-out: Imax
Rattus norvegicus [8] = assay: Ex vivo inhibition of MAO activity in infarcted cerebral hemisphere of middle cerebral artery occlusion-induced ischemia-reperfusion injury Sprague-Dawley rat model assessed as inhibition of 4-hydroxyquinoline formation using kynuramine as substrate at 25 mg/kg/day, ip for 2 days by fluorescence spectrophotometry; type: functional, organism-based; conditions: time 2.0 day
Rattus norvegicus [9] = assay: Inhibition of mitochondrial pathway of apoptosis in damaged cerebral hemisphere of middle cerebral artery occlusion-induced ischemia-reperfusion injury Sprague-Dawley rat model assessed as increase in ratio of Bcl-2 to Bax at 25 mg/kg/day, ip administered for 2 days by western blot analysis; type: functional, organism-based; conditions: time 2.0 day
Rattus norvegicus [10] = assay: (§2) Inhibition of mitochondrial pathway of apoptosis in damaged cerebral hemisphere of middle cerebral artery occlusion-induced ischemia-reperfusion injury Sprague-Dawley rat model assessed as increase in NeuN protein expression at 25 mg/kg/day, ip administered for 2 days by western blot analysis; type: functional, organism-based; conditions: time 2.0 day
Rattus norvegicus [11] = assay: as §2, with “decrease” for “increase”, “complement C3” for “NeuN”; type: functional, organism-based; conditions: time 2.0 day
Rattus norvegicus [12] = assay: Neuroprotective activity against middle cerebral artery occlusion-induced ischemia-reperfusion injury Sprague-Dawley rat model assessed as decrease in neurological deficit score administered ip for 2 days; type: functional, organism-based; conditions: dose 12.5-50 mg/kg/day, time 2.0 day
Rattus norvegicus [13] = assay: Neuroprotective activity against middle cerebral artery occlusion-induced ischemia-reperfusion injury Sprague-Dawley rat model assessed as decrease in cerebral infarct volume at 12.5 to 50 mg/kg/day, ip administered for 2 days by magnetic resonance imaging analysis; type: functional, organism-based; conditions: dose 12.5-50 mg/kg/day, time 2.0 day

SMILES	Activity (PC-12 [1])	also measured
C=CC(=O)Oc1ccc(CCO[C@@H]2O[C@H](CO)[C@@H](O)[C@H](O)[C@H]2O)cc1	Active	
OC[C@H]1O[C@@H](O)[C@H](O)[C@@H](O)[C@@H]1O	inactive	
O=C(Oc1ccc(CCO[C@@H]2O[C@H](CO)[C@@H](O)[C@H](O)[C@H]2O)cc1)c1c(Cl)cccc1Cl	inactive	
OC[C@H]1O[C@@H](OCCc2ccc(O)cc2)[C@H](O)[C@@H](O)[C@@H]1O [SALIDROSIDE]	Active	Ki [2]: 0.92 µM; logP ([3]; octanol/water, 24 h): -0.89; Emax (PC-12 [4]): 27%; EC50 (PC-12 [5]): 0.3 µM; IC50 [6]: 0.81 µM; Emax [7]: 52%
Cc1cccc(C(=O)Oc2ccc(CCO[C@@H]3O[C@H](CO)[C@@H](O)[C@H](O)[C@H]3O)cc2)c1	Active	
CC(=O)OC[C@H]1O[C@@H](OCCc2ccc(O)cc2)[C@H](O)[C@@H](OC(C)=O)[C@@H]1O	inactive	
CCCc1ccc(C(=O)Oc2ccc(CCO[C@@H]3O[C@H](CO)[C@@H](O)[C@H](O)[C@H]3O)cc2)cc1	Active	
CC(=O)Oc1ccc(CCO[C@@H]2O[C@H](CO)[C@@H](O)[C@H](O)[C@H]2O)cc1	Active	
O=C(Oc1ccc(CCO[C@@H]2O[C@H](CO)[C@@H](O)[C@H](O)[C@H]2O)cc1)c1ccccc1	Active	Ki [2]: 0.041 µM; logP at 24 h ([3]; n-octanol/saturated water): 1.44; inhibition (Rattus norvegicus [8]): Active; Emax (PC-12 [4]): 42%; EC50 (PC-12 [5]): 0.038 µM; inhibition (Rattus norvegicus [9]): Active; inhibition (Rattus norvegicus [10]): Active; inhibition (Rattus norvegicus [11]): Active; Activity (Rattus norvegicus [12]): Dose-dependent effect; IC50 [6]: 0.08 µM; Activity (Rattus norvegicus [13]): Active; Emax [7]: 73.6%
O=C(Oc1ccc(CCO[C@@H]2O[C@H](CO)[C@@H](O)[C@H](O)[C@H]2O)cc1)c1ccc(CCl)cc1	inactive	
O=C(Oc1ccc(CCO[C@@H]2O[C@H](CO)[C@@H](O)[C@H](O)[C@H]2O)cc1)c1ccc2ccccc2c1	inactive	
O=C(OC[C@H]1O[C@@H](OCCc2ccc(O)cc2)[C@H](O)[C@@H](O)[C@@H]1O)c1ccccc1	inactive	
O=C(Oc1ccc(CCO[C@@H]2O[C@H](CO)[C@@H](O)[C@H](O)[C@H]2O)cc1)c1cccc(Cl)c1Cl	inactive	
O=C(Oc1ccc(CCO[C@@H]2O[C@H](CO)[C@@H](O)[C@H](O)[C@H]2O)cc1)c1cccc(F)c1	Active	
COc1ccc(C(=O)Oc2ccc(CCO[C@@H]3O[C@H](CO)[C@@H](O)[C@H](O)[C@H]3O)cc2)cc1	Active	
Cc1ccccc1C(=O)Oc1ccc(CCO[C@@H]2O[C@H](CO)[C@@H](O)[C@H](O)[C@H]2O)cc1	Active	
CCc1ccc(C(=O)Oc2ccc(CCO[C@@H]3O[C@H](CO)[C@@H](O)[C@H](O)[C@H]3O)cc2)cc1	Active	
O=C(Oc1ccc(CCO[C@@H]2O[C@H](CO)[C@@H](O)[C@H](O)[C@H]2O)cc1)c1ccc(C(F)(F)F)cc1	Active	
O=C(/C=C/c1ccccc1)Oc1ccc(CCO[C@@H]2O[C@H](CO)[C@@H](O)[C@H](O)[C@H]2O)cc1	Active	
CCCCCCC(=O)Oc1ccc(CCO[C@@H]2O[C@H](CO)[C@@H](O)[C@H](O)[C@H]2O)cc1	Active	
Cc1ccc(C(=O)Oc2ccc(CCO[C@@H]3O[C@H](CO)[C@@H](O)[C@H](O)[C@H]3O)cc2)cc1	Active	
O=C(Oc1ccc(CCO[C@@H]2O[C@H](CO)[C@@H](O)[C@H](O)[C@H]2O)cc1)c1cccc(CCl)c1	inactive	
O=S(=O)(Oc1ccc(CCO[C@@H]2O[C@H](CO)[C@@H](O)[C@H](O)[C@H]2O)cc1)c1ccccc1	inactive	
O=C(Oc1ccc(CCO[C@@H]2O[C@H](CO)[C@@H](O)[C@H](O)[C@H]2O)cc1)c1cccc(Cl)c1	inactive	
O=C(Oc1ccc(CCO[C@@H]2O[C@H](CO)[C@@H](O)[C@H](O)[C@H]2O)cc1)C1CCCCC1	Active	
C/C=C/C(=O)Oc1ccc(CCO[C@@H]2O[C@H](CO)[C@@H](O)[C@H](O)[C@H]2O)cc1	Active	
OCCc1ccc(O)cc1	inactive	
O=C(Oc1ccc(CCO[C@@H]2O[C@H](CO)[C@@H](O)[C@H](O)[C@H]2O)cc1)c1ccc(Cl)c(Cl)c1	inactive	
OC[C@H]1O[C@H](OCCc2ccc(O)cc2)[C@H](O)[C@@H](O)[C@@H]1O	inactive	
CC(=O)OC[C@H]1O[C@@H](OCCc2ccc(O)cc2)[C@H](O)[C@@H](O)[C@@H]1O	inactive	

— ChEMBL document CHEMBL4706619, “Synthesis and identification of a novel derivative of salidroside as a selective, competitive inhibitor of monoamine oxidase B with enhanced neuroprotective properties” (Eur J Med Chem, 2021)
